# EP1242382B1, “TRICYCLIC PROTEIN KINASE INHIBITORS” (Wyeth, priority 1999, dated 2001)
# Molecular target: T1, p60^c-src (Src) (Homo sapiens, UniProt P12931)
# T1 construct: purchased Upstate Biotechnologies
# Test: Src kinase test procedure (Elisa format)
# Format: biochemical
# Details: dose 0.1 µM; read-out: Src %Inh
# Description: Inhibitors of p60^c-src (partially purified preparation purchased from Upstate Biotechnologies) tyrosine kinase activity are analyzed in an Elisa format. […] HRP-conjugated anti-phosphotyrosine is used to detect phosphorylated peptide via a color reaction. Conditions recommended by the manufacturer are employed.
# Reaction conditions: Five microliter aliquots of each compound prepared fresh at the time of the assay are added as a solution in 10mM HEPES pH 7.5, 10% DMSO to the reaction well. Thirty-five microliters of reaction mix containing Src, buffer and peptide/bovine serum albumin mix are added to the compound wells and incubated at 30°C for 10 minutes (reaction buffer: 50mM TrisHCl pH 7.5, 10mM MgCl2, 0.1mM EGTA, 0.5mM Na3VO4). The reaction is started by addition of 10 microliters of ATP, incubated at 30°C for 1 hour, and stopped by addition of 20 microliters of 0.5M EDTA. The reaction mixture with the phosphorylated peptide is then transferred to a streptavidin-coated microtiter plate (provided in the kit) and allowed to bind for 20 minutes. Unbound peptide and reaction mixture is decanted and the plate is washed with PBS six times. Horseradish peroxidase-conjugated phosphotyrosine antibody supplied in the kit is incubated with the plate for one hour, then decanted. The plate is again washed with PBS six times.
# T1 sequence (P12931 whole entry): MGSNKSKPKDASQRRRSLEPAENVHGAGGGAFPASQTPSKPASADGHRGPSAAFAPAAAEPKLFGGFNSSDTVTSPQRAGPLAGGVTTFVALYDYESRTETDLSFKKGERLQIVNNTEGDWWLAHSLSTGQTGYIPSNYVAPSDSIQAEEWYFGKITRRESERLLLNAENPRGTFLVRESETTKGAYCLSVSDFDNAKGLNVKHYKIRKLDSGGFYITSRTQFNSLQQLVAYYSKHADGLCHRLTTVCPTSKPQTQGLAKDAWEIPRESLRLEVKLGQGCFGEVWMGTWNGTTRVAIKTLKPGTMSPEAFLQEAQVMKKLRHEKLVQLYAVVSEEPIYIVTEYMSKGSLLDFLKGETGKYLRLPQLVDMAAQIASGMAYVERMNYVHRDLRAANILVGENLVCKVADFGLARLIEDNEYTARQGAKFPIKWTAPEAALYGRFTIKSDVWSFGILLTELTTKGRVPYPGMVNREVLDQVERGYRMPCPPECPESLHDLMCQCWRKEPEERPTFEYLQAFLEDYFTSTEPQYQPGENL
row,inhibition at 0.1 µM [%],Structure (SMILES)
1,30,"COc1ccc2cc3ncc(C#N)c(Nc4ccc(Cl)cc4Cl)c3cc2c1 [Example 103, 4-(2,4-Dichloroanilino)-7-methoxybenzo[g]quinoline-3-carbonitrile]"
2,30,"COc1ccc2cc3c(Nc4ccc(Cl)cc4Cl)c(C#N)cnc3cc2c1 [Example 104, 4-(2,4-dichloroanilino)-8-methoxybenzo[g]quinoline-3-carbonitrile]"
3,33,"COc1cc(Nc2c(C#N)cnc3nc4cc(OCCN5CCOCC5)c(OC)cc4cc23)c(Cl)cc1Cl [Example 173, 4-(2,4-Dichloro-5-methoxyanilino)-7-methoxy-8-[2-(4-morpholinyl)ethoxy]benzo[b][1,8]naphthyridine-3-carbonitrile]"

# Same assay, conditions: dose 5 µM; read-out: Src %Inh
row,inhibition at 5 µM [%],Structure (SMILES)
1,30,"COc1cc2cc3c(Nc4ccc(Cl)cc4Cl)c(C#N)cnc3nc2cc1OC [Example 177, 4-(2,4-Dichloroanilino)-7,8-dimethoxybenzo[b] [1,8]naphthyridine-3-carbonitrile]"

# Same assay, conditions: dose 10 µM
row,Src %Inh [%],Structure (SMILES)
1,46,"N#Cc1cnc2c(oc3ccccc32)c1Nc1ccc(Cl)cc1F [Example 86, 4-(4-Chloro-2-fluorophenylamino)benzo[4,5]furo[3,2-b]pyridine-3-carbonitrile]"

# Same assay, conditions: dose 10 µM; read-out: Src %Inh
row,inhibition at 10 µM [%],Structure (SMILES)
1,0,"COc1cc(Nc2c(C#N)cnc3c2sc2ccc([N+](=O)[O-])cc23)c(C)cc1Cl [Example 75, 4-(4-Chloro-5-methoxy-2-methylphenylamino)-8-nitrobenzo[4,5]thieno[3,2-b]pyridine-3-carbonitrile]"
2,54,"N#Cc1cnc2c(oc3ccccc32)c1Nc1ccc(Cl)cc1F [Example 86, 4-(4-Chloro-2-fluorophenylamino)benzo[4,5]furo[3,2-b]pyridine-3-carbonitrile]"

# Tested on: Rat2 fibroblasts stably transformed with v-Src/Hu c-Src fusion gene
# Test: Anchorage independent Src-transformed fibroblast proliferation test procedure
# Format: cell-based
# Details: Rattus norvegicus, @ dose 10 µM, read-out: Src TF prolif %Inh
# Excerpt: Anchorage Independent Src-transformed Fibroblast Proliferation Test Procedure: Rat2 fibroblasts stably transformed with a plasmid containing a CMV promotor controlled v-Src/Hu c-Src fusion gene in which the catalytic domain of human c-Src is inserted in place of the v-Src catalytic domain in the v-Src gene are used for the measurement of src dependent suspension growth.
row,Structure (SMILES),inhibition at 10 µM [%]
1,"COc1cc(Nc2c(C#N)cnc3cc4c(cc23)ncn4CCN2CCOCC2)c(C)cc1Cl [Example 57, 8-(4-Chloro-5-methoxy-2-methylanilino)-3-[2-(4-morpholinyl)ethyl]-3H-imidazo[4,5-g]quinline-7-carbonitrile]",0

# Same assay, conditions: Rattus norvegicus, the 3rd table c6, (a)-(d) = average of two to five runs, read-out: Src TF prolif IC50
row,Structure (SMILES),IC50 [nM]
1,"COc1cc(Nc2c(C#N)cnc3cc4cc(OCCCN5CCOCC5)c(OC)cc4cc23)c(Cl)cc1Cl [Example 157, 4-(2,4-dichloro-5-methoxyphenylamino)-7-methoxy-8-(3-morpholin-4-yl-propoxy)benzo[g]quinoline-3-carbonitrile]",38
2,"COc1cc(Nc2c(C#N)cnc3cc4cc(OCCn5nccn5)c(OC)cc4cc23)c(Cl)cc1Cl [Example 158, 4-(2,4-Dichloro-5-methoxyphenylamino)-7-methoxy-8-(2-[1,2,3]triazol-2-yl-ethoxy)benzo[g]quinoline-3-carbonitrile]",67
3,"COc1cc(Nc2c(C#N)cnc3cc4cc(OCCn5ccnn5)c(OC)cc4cc23)c(Cl)cc1Cl [Example 159, 4-(2,4-Dichloro-5-methoxyphenylamino)-7-methoxy-8-(2-[1,2,3]triazol-1-yl-ethoxy)benzo[g]quinoline-3-carbonitrile]",73
4,"COc1cc(Nc2c(C#N)cnc3nc4cc(OC)c(OC)cc4cc23)c(Cl)cc1Cl [Example 165, 4-(2,4-Dichloro-5-methoxyanilino)-7,8-dimethoxybenzo[b] [1,8]naphthyridine-3-carbonitrile]",> 10000
5,"COc1cc(Nc2c(C#N)cnc3nc4cc(OCCCl)c(OC)cc4cc23)c(Cl)cc1Cl [Example 172, 8-(2-Chloroethoxy)-4-(2,4-dichloro-5-methoxyanilino)-7-methoxybenzo[b][1,8]naphthyridine-3-carbonitrile]",1880
6,"COc1cc(Nc2c(C#N)cnc3nc4cc(OCCN5CCOCC5)c(OC)cc4cc23)c(Cl)cc1Cl [Example 173, 4-(2,4-Dichloro-5-methoxyanilino)-7-methoxy-8-[2-(4-morpholinyl)ethoxy]benzo[b][1,8]naphthyridine-3-carbonitrile]",3740
7,"CCOc1cc2cc3ncc(C#N)c(Nc4cc(OC)c(Cl)cc4C)c3cc2cc1OCCN1CCOCC1 [Example 190, 4-(4-Chloro-5-methoxy-2-methylanilino)-8-ethoxy-7-[2-(4-morpholinyl)ethoxy]benzo[g]quinoline-3-carbonitrile]",170
8,"CCOc1cc2cc3c(Nc4cc(OC)c(Cl)cc4C)c(C#N)cnc3cc2cc1OCCN1CCOCC1 [Example 191, 4-(4-Chloro-5-methoxy-2-methylanilino)-7-ethoxy-8-[2-(4-morpholinyl)ethoxy]benzo[g]quinoline-3-carbonitrile]",22
9,"CCOc1cc2cc3c(Nc4cc(OC)c(Cl)cc4C)c(C#N)cnc3cc2cc1OCCN(CC(N)=O)CC(N)=O [Example 194, 2-(Carbamoylmethyl-{2-[4-(4-chloro-5-methoxy-2-methylphenylamino)-3-cyano-7-ethoxybenzo[g]quinolin-8-yloxy]-ethyl}-amino)-acetamide]",> 10000
10,"COc1cc(Nc2c(C#N)cnc3cc4cc(OC)c(OCCN5CCN(C)CC5)cc4cc23)c(Cl)cc1F [Example 201, 4-(2-Chloro-4-fluoro-5-methoxyanilino)-8-methoxy-7-[2-(4-methyl-1-piperazinyl)ethoxy]benzo[g]quinoline-3-carbonitrile]",175
11,"COc1cc(Nc2c(C#N)cnc3cc4cc(OC)c(OCCN5CCN(C)CC5)cc4cc23)c(Cl)cc1C [Example 202, 4-(2-Chloro-5-methoxy-4-methylanilino)-8-methoxy-7-[2-(4-methyl-1-piperazinyl)ethoxy]benzo[g]quinoline-3-carbonitrile]",68
12,"COc1cc(Nc2c(C#N)cnc3cc4cc(OCCN5CCN(C)CC5)c(OC)cc4cc23)c(Cl)cc1C [Example 203, 4-(2-Chloro-5-methoxy-4-methylanilino)-7-methoxy-8-[2-(4-methyl-1-piperazinyl)ethoxy]benzo[g]quinoline-3-carbonitrile]",71
13,"COc1cc(Nc2c(C#N)cnc3cc4cc(OC)c(OCCN5CCC(O)CC5)cc4cc23)c(Cl)cc1C [Example 207, 4-(2-Chloro-5-methoxy-4-methylanilino)-8-methoxy-7-[2-(4-hydroxy-1-piperidinyl)ethoxy]benzo[g]quinoline-3-carbonitrile]",929
14,"COc1cc(Nc2c(C#N)cnc3cc4cc(OC)c(OCCN5CCOCC5)cc4cc23)c(Cl)cc1F [Example 209, 4-(2-Chloro-4-fluoro-5-methoxyanilino)-8-methoxy-7-[2-(4-morpholinyl)ethoxy]benzo[g]quinoline-3-carbonitrile]",309
15,"COc1cc(Nc2c(C#N)cnc3cc4cc(OCCN5CCN(C)CC5)c(OC)cc4cc23)c(Cl)cc1F [Example 211, 4-(2-Chloro-4-fluoro-5-methoxyanilino)-7-methoxy-8-[2-(4-methyl-1-piperazinyl)ethoxy]benzo[g]quinoline-3-carbonitrile]",128

# Molecular target: T2, Raf-1 (c-Raf) (Homo sapiens, UniProt P04049)
# T2 construct: Sf9 insect cell lysate containing full length 6his-tagged recombinant human c-Raf; host or cells: c-Raf: Sf9 insect cell lysate; MEK1 and MAPK: E. coli
# Test: Raf1 kinase cascade assay procedure
# Format: biochemical
# Details: not given
# Description: (Specific Activity: ~200U/ml). Human Non-active Mek-1-GST and human GST-MAP kinase (recombinant proteins produced in E. coli).
# • 1. Assay Dilution Buffer (ADB): 20mM MOPS, pH 7.2, 25mM β-glycerol phosphate, 5mM EGTA, 1mM sodium orthovanadate, 1mM dithiothreitol. • 2. Magnesium/ATP Cocktail: 500µM cold ATP and 75 mM magnesium chloride in ADB. • 4. Active Kinase: Human Active c-Raf: Use at 0.4U per assay point • 5. Non-active GST-MEK1: Use at 0.1µg per assay point. • 6. Non-active GST-p42 MAP Kinase: Use at 1.0 µg per assay point
# • 1. TBST - Tris (50 mM, pH 7.5), NaCl (150 mM), Tween-20 (0.05 %) • 2. Superblock (Pierce) • 3. Anti-GST Ab (Pharmacia) • 4. Anti-Phospho MAPK (Sigma) • 5. Anti-Mouse Ab / Europium conjugate (Wallac)
# First Stage: c-Raf Dependent Activation of GST-MEK and GST-MAPK • 1. Add […] of ADB per assay (i.e. per well of a 96 well plate) • 2. Add 10 ml of 0.5 mM cold ATP and 75 mM magnesium chloride in ADB. • 3. Add 2 ml of c-Raf (0.4U/assay), in conjunction with 1.6ml non-active MEK1 ([…]). • 4. Add 4 ml of non-active GST-p42 MAP Kinase (1.0 mg/assay). • 5. Incubate for 60 minutes at 30°C in a shaking incubator. • 6. Transfer this mixture to an anti-GST Ab coated 96 well plate (Nunc Immunosorb plates coated o/n with a-GST, then blocked with Pierce Superblock). • 7. Incubate for 60 minutes at 30°C in a shaking incubator Wash 3X with TBST, add Anti-Phospho MAPK (Sigma) (1:3000) • 6. Incubate for 60 minutes at 30°C in a shaking incubator • 7. Wash 3X with TBST, add Anti-Mouse Ab / Europium conjugate (Wallac) (1:500) • 8. Incubate for 60 minutes at 30°C in a shaking incubator • 9. Wash 3X with TBST, Read plates in Wallac Victor model Plate Reader. • 10. Collect data analyze in Excel for single point and IC50 determinations.
# Typically Raf-1 assay is run at compound concentrations from 10 µM to 1 nM in half log dilutions. (% inhibition is determined for each compound concentration).
# T2 sequence (P04049 whole entry): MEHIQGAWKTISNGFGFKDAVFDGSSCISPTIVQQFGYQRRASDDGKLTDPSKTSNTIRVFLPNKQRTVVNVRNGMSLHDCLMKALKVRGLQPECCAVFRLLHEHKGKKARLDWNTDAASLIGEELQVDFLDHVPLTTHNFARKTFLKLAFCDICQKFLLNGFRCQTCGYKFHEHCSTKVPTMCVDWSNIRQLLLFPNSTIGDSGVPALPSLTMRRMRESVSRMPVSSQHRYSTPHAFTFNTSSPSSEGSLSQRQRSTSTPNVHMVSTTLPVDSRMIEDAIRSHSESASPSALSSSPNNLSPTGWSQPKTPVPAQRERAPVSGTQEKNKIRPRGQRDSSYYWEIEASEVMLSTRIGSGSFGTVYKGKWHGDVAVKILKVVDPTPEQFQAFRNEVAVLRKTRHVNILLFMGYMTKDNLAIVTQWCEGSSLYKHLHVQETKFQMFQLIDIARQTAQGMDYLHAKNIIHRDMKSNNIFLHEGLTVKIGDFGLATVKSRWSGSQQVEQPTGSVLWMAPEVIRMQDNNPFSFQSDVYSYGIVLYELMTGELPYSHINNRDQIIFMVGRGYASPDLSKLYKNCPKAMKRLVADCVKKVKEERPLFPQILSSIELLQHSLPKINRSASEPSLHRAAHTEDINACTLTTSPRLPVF
row,IC50 [nM],Structure (SMILES)
1,90,"N#Cc1cnc2cc3ccccc3cc2c1Nc1ccc(Oc2ccccc2)cc1 [Example 3, 4-(4-Phenoxyanilino)benzo[g]quinoline-3-carbonitrile]"
2,300,"COc1cc(Nc2c(C#N)cnc3cc4cc(OCCN5CCOCC5)c(OC)cc4cc23)c(Cl)cc1Cl [Example 129, 4-(2,4-dichloro-5-methoxyanilino)-7-methoxy-8-[2-(4-morpholinyl)ethoxy]benzo[g]quinoline-3-carbonitrile]"
